Organism: Rattus norvegicus
Test: Open TG-GATES - Regimen: Single
Assay type: toxicity, organism-based, Sprague-Dawley
Design: regimen Single, gender Male, age 6 weeks
Conditions: in vivo, po, 100 mg/kg, route gavage, dose level Low; for APTT / Bas / Eos / Fbg / Hb / Ht / Lym / MCH / MCHC / MCV / Mono / Neu / PT / Plat / RBC / Ret / WBC: tissue Blood; for KIDNEY_L / KIDNEY_R / KIDNEY_TOTAL: tissue Kidney; for LIVER: tissue Liver; for A/G / ALP / ALT / AST / BUN / CRE / Ca / Cl / DBIL / GLC / IP / K / LDH / Na / PL / RALB / TBIL / TC / TG / TP / gamma-GTP: tissue Plasma

CC(S)C(=O)NCC(=O)O (configuration not stated) [TIOPRONIN]
TERMINAL_BW (3 h): 208 g | APTT (3 h): 22.4 s | Bas (3 h): 0% | Eos (3 h): 0.6% | Fbg (3 h): 295.6 mg/dL | Hb (3 h): 13 g/dL | Ht (3 h): 39.9% | Lym (3 h): 79.2% | MCH (3 h): 20 pg | MCHC (3 h): 32.6% | MCV (3 h): 61.6 fL | Mono (3 h): 2.4% | Neu (3 h): 16.8% | PT (3 h): 16.5 s | Plat (3 h): 113.3 x10_4/uL | RBC (3 h): 649.2 x10_4/ul | Ret (3 h): 7.6% | WBC (3 h): 73.6 x10_2/uL | KIDNEY_L (3 h): 0.9 g | KIDNEY_R (3 h): 0.9 g | KIDNEY_TOTAL (3 h): 1.8 g | LIVER (3 h): 9 g | A/G (3 h): 1.2 | ALP (3 h): 1568.4 IU/L | ALT (3 h): 48.2 IU/L | AST (3 h): 75.8 IU/L | BUN (3 h): 10.2 mg/dL | CRE (3 h): 0.1 mg/dL | Ca (3 h): 10.7 mg/dL | Cl (3 h): 106.8 meq/L | DBIL (3 h): 0 mg/dL | GLC (3 h): 185.6 mg/dL | IP (3 h): 8.6 mg/dL | K (3 h): 4.1 meq/L | LDH (3 h): 172.8 IU/L | Na (3 h): 142.8 meq/L | PL (3 h): 117.6 mg/dL | RALB (3 h): 2.9 g/dL | TBIL (3 h): 0.02 mg/dL | TC (3 h): 68.6 mg/dL | TG (3 h): 49.6 mg/dL | TP (3 h): 5.4 g/dL | gamma-GTP (3 h): 1.8 IU/L | TERMINAL_BW (6 h): 205.7 g | APTT (6 h): 22.4 s | Bas (6 h): 0% | Eos (6 h): 1% | Fbg (6 h): 301.8 mg/dL | Hb (6 h): 12.9 g/dL | Ht (6 h): 39.5% | Lym (6 h): 75.8% | MCH (6 h): 20.1 pg | MCHC (6 h): 32.6% | MCV (6 h): 61.6 fL | Mono (6 h): 2.6% | Neu (6 h): 20.2% | PT (6 h): 16 s | Plat (6 h): 118.6 x10_4/uL | RBC (6 h): 641.6 x10_4/ul | Ret (6 h): 7.7% | WBC (6 h): 93.1 x10_2/uL | KIDNEY_L (6 h): 0.9 g | KIDNEY_R (6 h): 0.9 g | KIDNEY_TOTAL (6 h): 1.9 g | LIVER (6 h): 8.8 g | A/G (6 h): 1.2 | ALP (6 h): 1456.8 IU/L | ALT (6 h): 39.6 IU/L | AST (6 h): 70.8 IU/L | BUN (6 h): 8.4 mg/dL | CRE (6 h): 0.1 mg/dL | Ca (6 h): 10.6 mg/dL | Cl (6 h): 105.8 meq/L | DBIL (6 h): 0 mg/dL | GLC (6 h): 185.2 mg/dL | IP (6 h): 9.8 mg/dL | K (6 h): 4.3 meq/L | LDH (6 h): 154.6 IU/L | Na (6 h): 144 meq/L | PL (6 h): 125.6 mg/dL | RALB (6 h): 2.9 g/dL | TBIL (6 h): 0.018 mg/dL | TC (6 h): 76.4 mg/dL | TG (6 h): 50.8 mg/dL | TP (6 h): 5.4 g/dL | gamma-GTP (6 h): 2 IU/L | TERMINAL_BW (9 h): 205.8 g | APTT (9 h): 22.6 s | Bas (9 h): 0% | Eos (9 h): 0.2% | Fbg (9 h): 291.8 mg/dL | Hb (9 h): 12.5 g/dL | Ht (9 h): 39.1% | Lym (9 h): 80.6% | MCH (9 h): 20.4 pg | MCHC (9 h): 32% | MCV (9 h): 63.7 fL | Mono (9 h): 1.8% | Neu (9 h): 16.2% | PT (9 h): 16.4 s | Plat (9 h): 114 x10_4/uL | RBC (9 h): 614.2 x10_4/ul | Ret (9 h): 8.3% | WBC (9 h): 72.6 x10_2/uL | KIDNEY_L (9 h): 0.9 g | KIDNEY_R (9 h): 0.9 g | KIDNEY_TOTAL (9 h): 1.8 g | LIVER (9 h): 8.5 g | A/G (9 h): 1.1 | ALP (9 h): 1275.6 IU/L | ALT (9 h): 39.2 IU/L | AST (9 h): 70.2 IU/L | BUN (9 h): 12.8 mg/dL | CRE (9 h): 0.1 mg/dL | Ca (9 h): 10.6 mg/dL | Cl (9 h): 106.4 meq/L | DBIL (9 h): 0.002 mg/dL | GLC (9 h): 190.2 mg/dL | IP (9 h): 9.5 mg/dL | K (9 h): 4.2 meq/L | LDH (9 h): 142.8 IU/L | Na (9 h): 143.8 meq/L | PL (9 h): 119.6 mg/dL | RALB (9 h): 2.8 g/dL | TBIL (9 h): 0.01 mg/dL | TC (9 h): 68.8 mg/dL | TG (9 h): 48.4 mg/dL | TP (9 h): 5.4 g/dL | gamma-GTP (9 h): 1.2 IU/L | TERMINAL_BW (24 h): 222 g | APTT (24 h): 20.5 s | Bas (24 h): 0% | Eos (24 h): 0.8% | Fbg (24 h): 302.2 mg/dL | Hb (24 h): 12.9 g/dL | Ht (24 h): 38.6% | Lym (24 h): 81.8% | MCH (24 h): 20.5 pg | MCHC (24 h): 33.3% | MCV (24 h): 61.6 fL | Mono (24 h): 2.6% | Neu (24 h): 13.8% | PT (24 h): 16.3 s | Plat (24 h): 111.9 x10_4/uL | RBC (24 h): 627.6 x10_4/ul | Ret (24 h): 7.4% | WBC (24 h): 75.5 x10_2/uL | KIDNEY_L (24 h): 1 g | KIDNEY_R (24 h): 1 g | KIDNEY_TOTAL (24 h): 1.9 g | LIVER (24 h): 9.6 g | A/G (24 h): 1.2 | ALP (24 h): 1761 IU/L | ALT (24 h): 45.6 IU/L | AST (24 h): 76.8 IU/L | BUN (24 h): 15.2 mg/dL | CRE (24 h): 0.1 mg/dL | Ca (24 h): 10.8 mg/dL | Cl (24 h): 106.2 meq/L | DBIL (24 h): 0 mg/dL | GLC (24 h): 184.8 mg/dL | IP (24 h): 7.4 mg/dL | K (24 h): 4.4 meq/L | LDH (24 h): 166 IU/L | Na (24 h): 144.4 meq/L | PL (24 h): 144 mg/dL | RALB (24 h): 3 g/dL | TBIL (24 h): 0.01 mg/dL | TC (24 h): 82.4 mg/dL | TG (24 h): 93 mg/dL | TP (24 h): 5.6 g/dL | gamma-GTP (24 h): 1.2 IU/L

From ChEMBL document CHEMBL3885861, “Open TG-GATES”
